Assays:
[1] = tested on: A549 human adenocarcinoma cells; assay: Survival (colony forming) assay of tumor cells under aerobic or hypoxic conditions with drug treatment; details: for aerobic cytotoxicity of the drug by itself: TPA 1 uM, PDA 1 uM, OAG 200 uM, thapsigargin 2 uM, compound 48/80 50 mg/ml, pentoxyfylline 1 mM; for effect on cell survival in normally oxygenated (aerated) cells: aerated A549 cells; for reduction of cell survival in hypoxic cells relative to the cell survival fraction with hypoxia alone: 20 hours of hypoxia (0.02% O2)
Experimental: A549 human adenocarcinoma cells were maintained in culture with alpha MEM containing 10% fetal calf serum. Cells were plated two days before hypoxia treatment in 60 mm glass (Corning) tissue culture dishes with notched sides at a density of 1×10^6 cells/dish. Hypoxia treatment of cells may be performed in any method known and available to those skilled in the art.
On the day of the hypoxia treatment, cells were re-fed with fresh media and incubated 4-6 hours before being exposed to hypoxia. The petri dishes were preferably then placed in specially designed aluminum hypoxia chambers that are prewarmed overnight at 37° C. The chambers were sealed and subjected to successive rounds of evacuation followed by flushing with 95% N2 /5% CO2 while slowly being agitated on a reciprocating shaker. The chambers were then placed in a 37° C. incubator and kept on a reciprocating shaker for the duration of the hypoxic treatment.
Oxygen concentration may be monitored with the use of a Clark-type electrode, such as commercially available from Controls Katharobic, Edmonton, Canada.
After hypoxic treatment, the seals to the chambers were broken, and the cells were washed with phosphate buffered saline, trypsinized, and then plated into tissue culture dishes to assay for colony forming ability.
All drugs were made from fresh stocks on the day of the treatment. In the combined drug and hypoxia treatments, the cells were pretreated for one hour with the drug before being exposed to hypoxia and then plated into tissue culture plates. Cells were then treated in accordance with several different methods: 1) exposure of the cells to thapsigargin for one hour prior to and continuous exposure for the duration of the hypoxia, and then plated for survival; 2) one hour exposure to the PKC activator drug in standard air followed by continuous exposure for the duration of hypoxia, and then plated for survival; 3) continuous exposure during hypoxia to TPA followed by immediate plating for survival; 4) 19 hour hypoxia treatment followed by one hour exposure to TPA in air or hypoxia using a Bactron II anaerobic chamber (Sheldon Labs, Cornelius, Oreg.), and then plating for survival; 5) continuous exposure during 19 hours of hypoxia with phospholipase inhibitors (compound 48/80 and pentoxyfylline), exposure to TPA for 1 hour in air, and then plating for survival.
TPA, PDA, staurosporine, compound 48/80, and pentoxyfylline are commercially available from Sigma Chemicals, St. Louis, Mo. Thapsigargin, herbimycin A, and genistein are commercially available from Gibco/BRL, Gaithersberg, Md.
After various experimental treatments, cells were plated into Nunc tissue culture plates at the appropriate concentrations in triplicate. The plates are placed in a 37° C. incubator and stained 10 days after the experiment with 1% crystal violet in 10% methanol. Viable colonies are defined as colonies with 50 or more cells.

[2] = tested on: PKC-epsilon; assay: Western blot of PKC epsilon levels in hypoxic tumor cells; assay type: cell-based, human; details: for effect on PKC epsilon induction/activation by hypoxia and TPA: alone or in combination, FIG. 9
Experimental: Western blotting methods, as detailed in Example 2, were used to validate that the treatment method of the invention increases levels of PKC. […] Little accumulation is seen before 9 hours of hypoxic exposure.
Cells were lysed in a 50 mM phosphate buffer, sonicated with 4.5 second pulses of 75 W with cooling on ice between pulses, and followed by 3 rounds of freezing/thawing. Protein concentrations of each sample may be estimated using the bicinchoninic acid method. 200 μg of protein were loaded per lane. After running for 2 hours at 40 mA in a 7.5% polyacrylamide gel, the gel is transferred onto Hybond ECL, (Amersham, Arlington Heights, Ill.) for 2 hours with the use of a Bio-Rad semi-dry transfer system. After the transfer, the gel may be stained with 0.15% Coomassie blue to ensure uniform transfer. […] Preferably, the membrane is probed using the method described in Kim, et al., which is incorporated herein by reference, and autoradiographed utilizing enhanced chemiluminescence (ECL) according to the manufacturer's protocol (Amersham, Arlington Heights, Ill.).

[3] = molecular target: protein kinase C (PKC); assay: Protein kinase C (PKC) activation assay; assay type: biochemical; details: approximate
Experimental: The EC50 is the concentration of compound that produces half-maximal stimulation of protein kinase C activity in a given assay.
Protein kinase C activation is measured in an assay that measures PKC phosphorylation activity using as substrate for PKC myelin basic protein. […] The reaction was initiated by an appropriate amount of crude cytosol extract. The phosphorylated product from 10 μl of reaction mixture was quantified using phospho-cellulose paper and washing method of Cook, et al. Background ^32 P incorporation in the absence of calcium and phosphatidyl serine/diolein and in the presence of 1 mM EGTA was subtracted from total incorporation in the complete PKC assay reaction mixture to determine the extent of PKC-dependent phosphorylation.
Suitable for use in this assay as a PKC source is either a crude extract, prepared as below, or, more preferably, purified PKC. Purified PKC is obtained from commercial sources.

[4] = tested on: A549 human adenocarcinoma cells; assay: Pulsed-field gel electrophoresis of DNA degradation in hypoxia-treated cells; assay type: cell-based; details: added to hypoxia treated cells
Source text: The mechanism of cell death by hypoxia appears to be necrosis rather than apoptosis. Using pulsed-field gel electrophoresis, a steady increase in DNA degradation as a function of time under hypoxia may be found. The methods followed those given in Example 2. The pattern of DNA degradation (not shown) is not one that is characteristic of apoptosis. The DNA was not fragmented into distinct nucleosome ladders, which is one of the hallmark characteristics of apoptosis; rather, it separated as a smear which is indicative of death by necrosis.
Pulsed-field gel electrophoresis may be performed in any manner known and available to those skilled in the art. One preferred method is described in Giaccia, 1992b, which is incorporated herein by reference. Briefly, fresh media was added to all of the treatment groups on the day of the treatment. After treatment, cells were washed with phosphate buffered saline (PBS), trypsinized, and resuspended in 1% agarose/PBS. The cells embedded in agarose were allowed to solidify in glass tubes and then cut into 5 mm plugs. The plugs were lysed in 0.5M EDTA, 1% sarkosyl, and 1 mg/ml proteinase K (Boehringer Mannheim, Indianapolis), and incubated at 50° C. for 16 hours in this lysis buffer.
After dialyzing the plugs against 25 volumes of 10 mM Tris and 1 mM EDTA for 4 hours, the plugs were then treated with 20 mg/ml RNase A for 3 hours at 37° C. […]

| Structure (SMILES) | aerobic cytotoxicity of the drug by itself [1] | effect on cell survival in normally oxygenated (aerated) cells ([1]; FIG. 3) | reduction of cell survival in hypoxic cells relative to the cell survival fraction with hypoxia alone ([1]; FIG. 3) | effect on PKC epsilon induction/activation by hypoxia and TPA [2] | other results |
| --- | --- | --- | --- | --- | --- |
| CCCCCCCC/C=C\CCCCCCCC(=O)OCC(CO)OC(C)=O (stereo not shown) [OAG, 2-acetyl-1-oleoylglycerol] | little or no aerobic cytotoxicity | none of the PKC activators had an appreciable effect on cell survival | – | – | – |
| CCCCCCCCCC(=O)O[C@@H]1[C@@H](C)[C@@]2(O)[C@@H](C=C(CO)C[C@@]3(O)C(=O)C(C)=C[C@@H]23)[C@@H]2C(C)(C)[C@]12OC(=O)CCCCCCCCC [PDA, 4α-phorbol-12-13-didecanoate] | little or no aerobic cytotoxicity | – | – | – | effect on cell survival (control phorbol ester) ([1]; aerobic and hypoxic A549 cells, FIG. 3): indistinguishable from no drug treatment; effect on steady state levels of PKC ([2]; data not shown): has no effect |
| CCCCCCCCCCCCCC(=O)O[C@@H]1[C@@H](C)[C@@]2(O)[C@@H](C=C(CO)C[C@]3(O)C(=O)C(C)=C[C@@H]23)[C@@H]2C(C)(C)[C@]12OC(C)=O [TPA, 12-O-tetradecanoyl-phorbol-13-acetate] | little or no aerobic cytotoxicity | none of the PKC activators had an appreciable effect on cell survival | about 1,000 fold | – | EC50 [3]: ~1000 nM; DNA fragmentation over that found with hypoxia treatment alone [4]: does not increase DNA fragmentation; selective killing of hypoxic versus aerobic cells ([1]; 1 μM, FIG. 3): selectively killed hypoxic, but not aerobic cells; increase in PKC levels over that of hypoxia alone ([2]; one hour exposure following 19 hours of hypoxia, FIG. 7B, 60 min): 5 fold |
| COC1C=CC=C(C)C(=O)NC2=CC(=O)C=C(C2=O)C(OC)C(C)CC(OC)C(OC)C(C)C=C(C)C1OC(N)=O (stereo not shown) [herbimycin A] | – | – | – | has no effect on PKC induction | – |
| CC(=O)CCCCn1c(=O)c2c(ncn2C)n(C)c1=O [pentoxyfylline] | – | – | – | do not inhibit PKC activation | protection against TPA mediated hypoxic cell killing (increase in survival) ([1]; inhibitor during 19 hours of hypoxia, then TPA 1 hour, FIG. 8): 100 fold |
| C/C=C(/C)C(=O)O[C@H]1C(C)=C2[C@H]([C@@H]1OC(=O)CCCCCCC)[C@@](C)(OC(C)=O)C[C@H](OC(=O)CCC)[C@@]1(O)[C@H]2OC(=O)[C@@]1(C)O [thapsigargin] | little or no aerobic cytotoxicity | none of the PKC activators had an appreciable effect on cell survival | about 1,000 fold | – | selective killing of hypoxic cells ([1]; 2 μM, FIG. 3): selectively killed hypoxic cells |
